In patent publication US7144902B1, “Prodrugs of thrombin inhibitors” (Abbott GmbH & Co. KG, priority 1999, dated 2006):

How the values were obtained:
[1] = Stability of aqueous solutions of the product; format: physicochemical; conditions: neutral versus acidic aqueous solutions; acylated amidine function is hydrolyzed in acid
Experimental: • The crude product obtained in g), t-BuO2C—CH2-(Boc)-(D)-Chg-Pyr-NH—CH -5-(2=NH(NH—COOCH3))-thioph (1.7 g, max. 2.3 mmol), was dissolved in a mixture of 45 ml of methylene chloride, 20 ml of dioxane and 45 ml of 4N hydrochloric acid in dioxane and stirred overnight with exclusion of moisture. The reaction solution was concentrated in vacuo, and the residue was codistilled with ether several times and subsequently extracted by stirring with ether. After drying in vacuo, 1.3 g of the title compound were obtained as a white solid product. […] FAB-MS (M+H^+): 506

[2] = system: human colon adenocarcinoma cell lines HT-29, Caco-2 and T84; IEC-18 cell line; assay: Transport experiments through intestinal cell layers on Transwell polycarbonate membranes (apical to basolateral); format: in vitro ADME; parameters: key: +++: very good transport; ++: good transport; +: moderate transport; conditions: transport rate from apical side through the cell layer to basolateral side, e.g. apical (pH 6.0) to basolateral (pH 8.0), e.g. 24 h; HPLC; divided into categories
From the text: Several in vitro models are available for studying intestinal absorption. Thus, the human colon adenocarcinoma cell lines HT-29, Caco-2 and T84 are routinely employed to investigate various intestinal transport processes (Madara et al., Am. J. Physiol. 1988, 254: G416–G423; K. L. Audus et al., Pharm. Res. 1990, 7, 435–451). The IEC-18 cell line has also shown itself to be a suitable model for investigating the permeability of hydrophilic substances through the intestinal membrane (Ma et al., J. Lab. Clin. Med. 1992 120, 329–41; Duizer et al., J. Contr. Rel. 1997 49, 39–49).
For the transport experiments (for materials and methods, see R. T. Borchardt, P. L. Smith, G. Wilson, Models for Assessing Drug Absorption and Metabolism, 1st edition, Plenum Press New York and London, 1996, chapter 2), the cells are cultivated on Transwell polycarbonate membranes for 17–24 days. The test chamber is arranged so that the membrane divides the apical from the basolateral compartment. Transport of the test substances from the apical side through the cell layer onto the basolateral side can be measured as a function of the pH gradient, for example apical (pH 6.0)→basolateral (pH 8.0).
After incubation of the cells with the test substance, samples are taken from the apical and basolateral sides after a defined time interval (e.g. 24 h). The content of test substance employed and any metabolites in each of the two compartments is determined by HPLC (comparison of retention times) and HPLC-MS (elucidation of metabolites) analyses. The transport rate is calculated.
It is possible on the basis of the results of these tests to divide test substances into the following categories: […]

Row | Transport [2] | SMILES | stability of aqueous solutions [1]
1 | – | COC(=O)NC(=N)c1ccc(CNC(=O)C2C=CCN2C(=O)C(NCC(=O)O)C2CCCCC2)s1.Cl (centres unmarked) [Example 1, N-(Hydroxycarbonylmethyl)-(D)-cyclohexylglycyl-3,4-dehydroproline 2-(N-methoxycarbonyl)amidino-5-thienylmethylamide hydrochloride] | distinctly more stable than acidic solutions
2 | + | CC(C)COC(=O)NC(=N)c1ccc(CNC(=O)C2C=CCN2C(=O)[C@H](NCC(=O)O)C2CCCCC2)s1.Cl (some centres unmarked) [Example 2, N-(Hydroxycarbonylmethyl)-(D)-cyclohexylglycyl-3,4-dehydroproline 2-(N-isobutyloxycarbonyl)amidino-5-thienylmethylamide hydrochloride] | –
3 | + | Cc1ccc(CON=C(N)c2ccc(CNC(=O)C3C=CCN3C(=O)[C@H](NCC(=O)O)C3CCCCC3)s2)cc1.Cl (some centres unmarked) [Example 10, N-(Hydroxycarbonylmethyl)-(D)-cyclohexylglycyl-3.4-dehydroproline 2-(N-(p-methylbenzyloxy)amidino)-5-thienylmethylamide hydrochloride] | –
4 | +++ | CCOC(=O)CN[C@@H](C(=O)N1CC=CC1C(=O)NCc1ccc(C(N)=NOCc2ccc(C)cc2)s1)C1CCCCC1.Cl (some centres unmarked) [Example 11, N-(Ethoxycarbonylmethyl)-(D)-cyclohexylglycyl-3.4-dehydroproline 2-(N-(p-methylbenzyloxy)amidino)-5-thienylmethylamide hydrochloride] | –
5 | ++ | CCCCCCCCCCCCCCCCOC(=O)CN[C@H](CC1CCCCC1)C(=O)N1CC=CC1C(=O)NCc1nc(C(=N)N)cs1.Cl.Cl (some centres unmarked) [Example 21, N-(Hexadecyloxycarbonylmethyl)-(D)-cyclohexylalanyl-3,4-dehydroproline 4-amidino-2-thiazolylmethylamide dihydrochloride] | –
6 | ++ | CCCCCCCCCCCCCCCCOC(=O)CN[C@H](CC1CCCCC1)C(=O)N1CC=CC1C(=O)NCc1nc(C(N)=NO)cs1.Cl (some centres unmarked) [Example 25, N-(Hexadecyloxycarbonylmethyl)-(D)-cyclohexylalanyl-3,4-dehydroproline 4-hydroxyamidino-2-thiazolylmethylamide hydrochloride] | –
7 | ++ | CCCCCCOC(=O)CN[C@H](CC1CCCCC1)C(=O)N1CC=CC1C(=O)NCc1nc(C(N)=NO)cs1.Cl (some centres unmarked) [Example 29, N-(Hexyloxycarbonylmethyl)-(D)-cyclohexylalanyl-3,4-dehydroproline 4-hydroxyamidino-2-thiazolylmethylamide hydrochloride] | –
8 | +++ | CC(C)CCOC(=O)CN[C@H](CC1CCCCC1)C(=O)N1CC=CC1C(=O)NCc1nc(C(N)=NO)cs1.Cl (some centres unmarked) [Example 33, N-(3,3-Dimethylpropyloxycarbonylmethyl)-(D)-cyclohexylalanyl-3,4-dehydroproline 4-hydroxyamidino-2-thiazolylmethylamide hydrochloride] | –
